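Cells were grown in 96-well plates and exposed to each compound for 48 hours at five concentrations; endpoints were interpolated linearly between bracketing concentrations, or set to the highest concentration if not reached. The concentration for full growth arrest is given as TGI.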
Columns and labels:
Assay in all cases: inhibition of tumour cell growth, NCI panel, 48 h
M19-MEL melanoma = system: M19-MEL melanoma
MOLT-4 leukemia = system: MOLT-4 leukemia
HCC-2998 colon = system: HCC-2998 colon
CAKI-1 renal = system: CAKI-1 renal
HT29 colon = system: HT29 colon
SK-MEL-2 melanoma = system: SK-MEL-2 melanoma
SR leukemia = system: SR leukemia
HL-60(TB) leukemia = system: HL-60(TB) leukemia
OVCAR-3 ovarian = system: OVCAR-3 ovarian
SK-MEL-5 melanoma = system: SK-MEL-5 melanoma
KM20L2 colon = system: KM20L2 colon
MALME-3M melanoma = system: MALME-3M melanoma
TK-10 renal = system: TK-10 renal
UACC-62 melanoma = system: UACC-62 melanoma
A549 NSCLC = system: A549 NSCLC
HOP-92 NSCLC = system: HOP-92 NSCLC
NCI-H23 lung = system: NCI-H23 lung
XF 498 CNS = system: XF 498 CNS
K-562 leukemia = system: K-562 leukemia
786-0 renal = system: 786-0 renal
SF-539 CNS = system: SF-539 CNS
CCRF-CEM leukemia = system: CCRF-CEM leukemia
SK-OV-3 ovarian = system: SK-OV-3 ovarian
LXFL 529 NSCLC = system: LXFL 529 NSCLC
RXF-631 renal = system: RXF-631 renal
KM12 colon = system: KM12 colon
SF-268 CNS = system: SF-268 CNS
RXF 393 renal = system: RXF 393 renal
DMS 114 small cell lung = system: DMS 114 small cell lung
SF-295 CNS = system: SF-295 CNS
SW-620 colon = system: SW-620 colon
OVCAR-5 ovarian = system: OVCAR-5 ovarian
SK-MEL-28 melanoma = system: SK-MEL-28 melanoma
OVCAR-4 ovarian = system: OVCAR-4 ovarian
OVCAR-8 ovarian = system: OVCAR-8 ovarian
UO-31 renal = system: UO-31 renal
HCT-15 colon = system: HCT-15 colon
DLD-1 colon = system: DLD-1 colon
SN12C renal = system: SN12C renal
M14 melanoma = system: M14 melanoma
SNB-19 CNS = system: SNB-19 CNS
EKVX NSCLC = system: EKVX NSCLC
ACHN renal = system: ACHN renal
SNB-78 CNS = system: SNB-78 CNS
NCI-H522 lung = system: NCI-H522 lung
U251 CNS = system: U251 CNS
DMS 273 small cell lung = system: DMS 273 small cell lung
SNB-75 CNS = system: SNB-75 CNS
HOP-62 NSCLC = system: HOP-62 NSCLC
A498 renal = system: A498 renal
IGROV1 ovarian = system: IGROV1 ovarian
NCI-H226 lung = system: NCI-H226 lung
LOX IMVI melanoma = system: LOX IMVI melanoma
NCI-H460 lung = system: NCI-H460 lung
RPMI-8226 leukemia = system: RPMI-8226 leukemia
UACC-257 melanoma = system: UACC-257 melanoma
HOP-18 NSCLC = system: HOP-18 NSCLC
COLO 205 colon = system: COLO 205 colon
HCT-116 colon = system: HCT-116 colon

O=C(N/C(=C\c1cc(Cl)ccc1Cl)c1nc2ccccc2[nH]1)c1ccccc1 gave a TGI (M19-MEL melanoma) greater than 100 µM, a TGI (MOLT-4 leukemia) of 63.8 µM and a TGI (HCC-2998 colon) of 37.8 µM. For the same compound, the TGI (CAKI-1 renal) was greater than 100 µM, the TGI (HT29 colon) was 29.8 µM and the TGI (SK-MEL-2 melanoma) was greater than 100 µM. For the same compound, the TGI (SR leukemia) was 81.7 µM, the TGI (HL-60(TB) leukemia) was 67 µM and the TGI (OVCAR-3 ovarian) was greater than 100 µM. The TGI (SK-MEL-5 melanoma) was 53.3 µM, the TGI (KM20L2 colon) was greater than 100 µM and the TGI (MALME-3M melanoma) was greater than 100 µM. For the same compound, the TGI (TK-10 renal) was greater than 100 µM, the TGI (UACC-62 melanoma) was greater than 100 µM and the TGI (A549 NSCLC) was greater than 100 µM. For the same compound, the TGI (HOP-92 NSCLC) was 31.5 µM, the TGI (NCI-H23 lung) was 96.9 µM and the TGI (XF 498 CNS) was 69 µM. The TGI (K-562 leukemia) was 76.6 µM, the TGI (786-0 renal) was 35.7 µM and the TGI (SF-539 CNS) was greater than 100 µM. For the same compound, the TGI (CCRF-CEM leukemia) was 88.3 µM, the TGI (SK-OV-3 ovarian) was greater than 100 µM and the TGI (LXFL 529 NSCLC) was greater than 100 µM. For the same compound, the TGI (RXF-631 renal) was greater than 100 µM, the TGI (KM12 colon) was 88.9 µM and the TGI (SF-268 CNS) was greater than 100 µM. The TGI (RXF 393 renal) was 64.4 µM, the TGI (DMS 114 small cell lung) was greater than 100 µM and the TGI (SF-295 CNS) was greater than 100 µM. The TGI (SW-620 colon) was 52.8 µM, the TGI (OVCAR-5 ovarian) was greater than 100 µM and the TGI (SK-MEL-28 melanoma) was greater than 100 µM. It also gave a TGI (OVCAR-4 ovarian) greater than 100 µM, a TGI (OVCAR-8 ovarian) of 46.9 µM and a TGI (UO-31 renal) of 62.7 µM. The TGI (HCT-15 colon) was 71.9 µM, the TGI (DLD-1 colon) was 37 µM and the TGI (SN12C renal) was greater than 100 µM. For the same compound, the TGI (M14 melanoma) was 69.7 µM, the TGI (SNB-19 CNS) was greater than 100 µM and the TGI (EKVX NSCLC) was greater than 100 µM. The TGI (ACHN renal) was greater than 100 µM, the TGI (SNB-78 CNS) was greater than 100 µM and the TGI (NCI-H522 lung) was greater than 100 µM. It also gave a TGI (U251 CNS) greater than 100 µM.

CC1=NN(C(=O)CC(=O)Nc2ccccc2)C(=O)C1N=Nc1ccc(S(N)(=O)=O)cc1 (centres undefined) was tested, and the TGI (MOLT-4 leukemia) was greater than 100 µM, the TGI (HCC-2998 colon) was greater than 100 µM and the TGI (CAKI-1 renal) was greater than 100 µM. The TGI (DMS 273 small cell lung) was greater than 100 µM, the TGI (HT29 colon) was greater than 100 µM and the TGI (SK-MEL-2 melanoma) was greater than 100 µM. It also gave a TGI (SR leukemia) greater than 100 µM, a TGI (SNB-75 CNS) greater than 100 µM and a TGI (HL-60(TB) leukemia) greater than 100 µM. It also gave a TGI (OVCAR-3 ovarian) greater than 100 µM, a TGI (SK-MEL-5 melanoma) greater than 100 µM and a TGI (KM20L2 colon) greater than 100 µM. It also gave a TGI (MALME-3M melanoma) greater than 100 µM, a TGI (HOP-62 NSCLC) greater than 100 µM and a TGI (TK-10 renal) greater than 100 µM. It also gave a TGI (UACC-62 melanoma) of 92.6 µM, a TGI (A549 NSCLC) greater than 100 µM and a TGI (HOP-92 NSCLC) greater than 100 µM. It also gave a TGI (NCI-H23 lung) greater than 100 µM, a TGI (XF 498 CNS) greater than 100 µM and a TGI (A498 renal) greater than 100 µM. For the same compound, the TGI (IGROV1 ovarian) was greater than 100 µM, the TGI (K-562 leukemia) was greater than 100 µM and the TGI (786-0 renal) was greater than 100 µM. For the same compound, the TGI (SF-539 CNS) was greater than 100 µM, the TGI (CCRF-CEM leukemia) was greater than 100 µM and the TGI (NCI-H226 lung) was greater than 100 µM. The TGI (SK-OV-3 ovarian) was greater than 100 µM, the TGI (LOX IMVI melanoma) was greater than 100 µM and the TGI (LXFL 529 NSCLC) was greater than 100 µM. The TGI (RXF-631 renal) was greater than 100 µM, the TGI (KM12 colon) was greater than 100 µM and the TGI (SF-268 CNS) was greater than 100 µM. For the same compound, the TGI (NCI-H460 lung) was greater than 100 µM, the TGI (RXF 393 renal) was greater than 100 µM and the TGI (DMS 114 small cell lung) was greater than 100 µM. The TGI (SF-295 CNS) was greater than 100 µM, the TGI (SW-620 colon) was greater than 100 µM and the TGI (RPMI-8226 leukemia) was greater than 100 µM. It also gave a TGI (OVCAR-5 ovarian) greater than 100 µM, a TGI (UACC-257 melanoma) greater than 100 µM and a TGI (SK-MEL-28 melanoma) greater than 100 µM. For the same compound, the TGI (OVCAR-4 ovarian) was greater than 100 µM, the TGI (OVCAR-8 ovarian) was greater than 100 µM and the TGI (UO-31 renal) was greater than 100 µM. The TGI (HCT-15 colon) was greater than 100 µM, the TGI (HOP-18 NSCLC) was greater than 100 µM and the TGI (DLD-1 colon) was greater than 100 µM. It also gave a TGI (SN12C renal) greater than 100 µM, a TGI (M14 melanoma) greater than 100 µM and a TGI (SNB-19 CNS) greater than 100 µM. The TGI (EKVX NSCLC) was greater than 100 µM, the TGI (ACHN renal) was greater than 100 µM and the TGI (SNB-78 CNS) was greater than 100 µM. The TGI (COLO 205 colon) was greater than 100 µM, the TGI (HCT-116 colon) was greater than 100 µM and the TGI (NCI-H522 lung) was greater than 100 µM. It also gave a TGI (U251 CNS) greater than 100 µM.

Reference: PubChem BioAssay (NCI)
